This note sets out measurements from paper PMC5218480 (PLoS ONE, 2017).

The test system of the experiment is MV-4-11 cells. Nature of the experiment: Gene expression microarray analysis (Affymetrix PrimeView) and GSEA. Also noted: RFU PODN (11730768_x_at) / Fold change /veh PODN (11730768_x_at) / RFU LINC00158 (11744669_a_at) / Fold change /veh LINC00158 (11744669_a_at) / RFU DUSP10 (11751237_a_at) / Fold change /veh DUSP10 (11751237_a_at) / RFU ID3 (11757404_x_at) / Fold change /veh ID3 (11757404_x_at) / RFU PLEKHG5 (11737974_s_at) / Fold change /veh PLEKHG5 (11737974_s_at) / RFU LRRC4B (11730491_at) / Fold change /veh LRRC4B (11730491_at) / RFU GIMAP4 (11747438_a_at) / Fold change /veh GIMAP4 (11747438_a_at) / RFU KRT8 (11758183_x_at) / Fold change /veh KRT8 (11758183_x_at) / RFU CNN1 (11734310_a_at) / Fold change /veh CNN1 (11734310_a_at) / RFU VPS37D (11726825_at) / Fold change /veh VPS37D (11726825_at) / RFU C10orf10 (11716522_x_at) / Fold change /veh C10orf10 (11716522_x_at) / RFU KIR2DL2 /// KIR2DL4 /// KIR2DL5A /// KIR2DL5B /// KIR2DS1 /// KIR2DS2 /// KIR2DS3 /// KIR2DS4 /// KIR3DL3 /// KIR3DL3 /// KIR3DS1 (11738374_at) / Fold change /veh KIR2DL2 /// KIR2DL4 /// KIR2DL5A /// KIR2DL5B /// KIR2DS1 /// KIR2DS2 /// KIR2DS3 /// KIR2DS4 /// KIR3DL3 /// KIR3DL3 /// KIR3DS1 (11738374_at) / RFU C1QL1 (11718748_at) / Fold change /veh C1QL1 (11718748_at) / RFU TMPRSS4 (11747572_a_at) / Fold change /veh TMPRSS4 (11747572_a_at) / RFU HAMP (11756126_x_at) / Fold change /veh HAMP (11756126_x_at) / RFU RNFT2 (11725882_a_at) / Fold change /veh RNFT2 (11725882_a_at) / RFU NR4A2 (11747474_a_at) / Fold change /veh NR4A2 (11747474_a_at) / RFU ABCC12 (11746883_a_at) / Fold change /veh ABCC12 (11746883_a_at) / RFU TMEM136 (11760407_x_at) / Fold change /veh TMEM136 (11760407_x_at) / RFU CLDN22 /// WWC2 (11732394_at) / Fold change /veh CLDN22 /// WWC2 (11732394_at) / RFU HLA-DPB1 (11760878_x_at) / Fold change /veh HLA-DPB1 (11760878_x_at) / RFU SPINT1 (11716480_a_at) / Fold change /veh SPINT1 (11716480_a_at) / RFU GAP43 (11754022_s_at) / Fold change /veh GAP43 (11754022_s_at) / RFU A4GNT (11735810_at) / Fold change /veh A4GNT (11735810_at) / RFU PRB3 (11715151_x_at) / Fold change /veh PRB3 (11715151_x_at) / RFU TUBB4B (11761932_at) / Fold change /veh TUBB4B (11761932_at) / RFU CAPN14 (11732068_a_at) / Fold change /veh CAPN14 (11732068_a_at) / RFU TMCC2 (11721928_a_at) / Fold change /veh TMCC2 (11721928_a_at) / RFU IRGQ (11745062_a_at) / Fold change /veh IRGQ (11745062_a_at) / RFU FAM174B (11720279_a_at) / Fold change /veh FAM174B (11720279_a_at) / RFU TMPRSS4 (11748680_a_at) / Fold change /veh TMPRSS4 (11748680_a_at) / RFU FAM212B (11763350_a_at) / Fold change /veh FAM212B (11763350_a_at) / RFU PLEKHG5 (11743358_a_at) / Fold change /veh PLEKHG5 (11743358_a_at) / RFU ZSCAN30 (11745921_a_at) / Fold change /veh ZSCAN30 (11745921_a_at) / RFU CMKLR1 (11741424_a_at) / Fold change /veh CMKLR1 (11741424_a_at) / RFU LOC101060620 /// MAPK8IP1 (11723275_at) / Fold change /veh LOC101060620 /// MAPK8IP1 (11723275_at) / RFU SPTSSB (11747773_x_at) / Fold change /veh SPTSSB (11747773_x_at) / RFU PRSS12 (11739890_at) / Fold change /veh PRSS12 (11739890_at) / RFU BIN1 (11741810_x_at) / Fold change /veh BIN1 (11741810_x_at) / RFU WNT11 (11732464_a_at) / Fold change /veh WNT11 (11732464_a_at) / RFU C10orf10 (11716521_a_at) / Fold change /veh C10orf10 (11716521_a_at) / RFU C5orf56 (11738089_at) / Fold change /veh C5orf56 (11738089_at) / RFU CYB561 (11721691_x_at) / Fold change /veh CYB561 (11721691_x_at) / RFU ANKRD19P (11752326_a_at) / Fold change /veh ANKRD19P (11752326_a_at) / RFU OR2T12 /// OR2T33 /// OR2T8 (11738714_s_at) / Fold change /veh OR2T12 /// OR2T33 /// OR2T8 (11738714_s_at) / RFU VCAN (11748164_a_at) / Fold change /veh VCAN (11748164_a_at) / RFU JSRP1 (11732532_at) / Fold change /veh JSRP1 (11732532_at) / RFU KRTAP10-11 (11738290_x_at) / Fold change /veh KRTAP10-11 (11738290_x_at) / RFU MYO3A (11730013_a_at) / Fold change /veh MYO3A (11730013_a_at) / RFU EBF3 (11725865_a_at) / Fold change /veh EBF3 (11725865_a_at) / RFU CAMK2N1 (11719241_x_at) / Fold change /veh CAMK2N1 (11719241_x_at) / RFU C5orf56 (11738088_a_at) / Fold change /veh C5orf56 (11738088_a_at) / RFU OLFML3 (11715873_a_at) / Fold change /veh OLFML3 (11715873_a_at) / RFU LOC100653217 /// NTM (11731650_a_at) / Fold change /veh LOC100653217 /// NTM (11731650_a_at) / RFU MAPK11 (11762145_a_at) / Fold change /veh MAPK11 (11762145_a_at) / RFU FIZ1 (11724087_x_at) / Fold change /veh FIZ1 (11724087_x_at) / RFU OASL (11726364_x_at) / Fold change /veh OASL (11726364_x_at) / RFU SOX15 (11748057_x_at) / Fold change /veh SOX15 (11748057_x_at) / RFU CD79A (11719716_a_at) / Fold change /veh CD79A (11719716_a_at) / RFU HIST1H1D (11736915_at) / Fold change /veh HIST1H1D (11736915_at) / RFU CASKIN2 (11723855_a_at) / Fold change /veh CASKIN2 (11723855_a_at) / RFU LOC730098 (11760151_x_at) / Fold change /veh LOC730098 (11760151_x_at) / RFU OR4N2 (11742367_at) / Fold change /veh OR4N2 (11742367_at) / RFU PRRT2 (11749266_a_at) / Fold change /veh PRRT2 (11749266_a_at) / RFU SNX32 (11753110_a_at) / Fold change /veh SNX32 (11753110_a_at) / RFU CDHR5 (11726645_a_at) / Fold change /veh CDHR5 (11726645_a_at) / RFU RCAN1 (11760418_a_at) / Fold change /veh RCAN1 (11760418_a_at) / RFU FAM167A (11723789_a_at) / Fold change /veh FAM167A (11723789_a_at) / RFU FAM26E (11764081_at) / Fold change /veh FAM26E (11764081_at) / RFU ISYNA1 (11749810_s_at) / Fold change /veh ISYNA1 (11749810_s_at) / RFU ACY1 (11761880_at) / Fold change /veh ACY1 (11761880_at) / RFU 11764098_at / Fold change /veh 11764098_at / RFU SAMD14 (11745864_x_at) / Fold change /veh SAMD14 (11745864_x_at) / RFU NPB (11741838_a_at) / Fold change /veh NPB (11741838_a_at) / RFU TMPRSS6 (11731388_a_at) / Fold change /veh TMPRSS6 (11731388_a_at) / RFU KRTAP10-2 (11738614_at) / Fold change /veh KRTAP10-2 (11738614_at) / RFU ARHGAP8 /// PRR5-ARHGAP8 (11727945_x_at) / Fold change /veh ARHGAP8 /// PRR5-ARHGAP8 (11727945_x_at) / RFU KRTAP5-7 /// NADSYN1 (11734609_at) / Fold change /veh KRTAP5-7 /// NADSYN1 (11734609_at) / RFU RASL12 (11751679_a_at) / Fold change /veh RASL12 (11751679_a_at) / RFU CDKN2B (11736163_a_at) / Fold change /veh CDKN2B (11736163_a_at) / RFU PRF1 (11729649_at) / Fold change /veh PRF1 (11729649_at) / RFU, ZNF638 /// ZNF638-IT1 / Fold change vs veh, ZNF638 /// ZNF638-IT1 / RFU, PANK3 / Fold change vs veh, PANK3 / RFU, SH3YL1 / Fold change vs veh, SH3YL1 / RFU, ZEB2 / Fold change vs veh, ZEB2 / RFU, NRIP1 / Fold change vs veh, NRIP1 / RFU, PTTG1IP / Fold change vs veh, PTTG1IP / RFU, CAPN2 / Fold change vs veh, CAPN2 / RFU, MED14 / Fold change vs veh, MED14 / RFU, SNORA58 / Fold change vs veh, SNORA58 / RFU, C1orf63 / Fold change vs veh, C1orf63 / RFU, LRRFIP1 / Fold change vs veh, LRRFIP1 / RFU, NDUFAF7 / Fold change vs veh, NDUFAF7 / RFU, SLC12A2 / Fold change vs veh, SLC12A2 / RFU, IBTK / Fold change vs veh, IBTK / RFU, ESF1 / Fold change vs veh, ESF1 / Fold change vs veh, TMEM50B / RFU, TAOK1 / Fold change vs veh, TAOK1 / RFU, ACBD3 / Fold change vs veh, ACBD3 / RFU, TMA16 / Fold change vs veh, TMA16 / RFU, RWDD3 / Fold change vs veh, RWDD3 / RFU, BCAT1 / Fold change vs veh, BCAT1 / RFU, EDEM3 / Fold change vs veh, EDEM3 / RFU, TMEM33 / Fold change vs veh, TMEM33 / RFU, WDR75 / Fold change vs veh, WDR75 / RFU, AHCTF1 / Fold change vs veh, AHCTF1 / RFU, TFRC / Fold change vs veh, TFRC / RFU, ZDHHC17 / Fold change vs veh, ZDHHC17 / RFU, NOM1 / Fold change vs veh, NOM1 / RFU, ARL8B / Fold change vs veh, ARL8B / RFU, ZBTB11 / Fold change vs veh, ZBTB11 / RFU, TAMM41 / Fold change vs veh, TAMM41 / RFU, KIAA1704 /// LOC100996395 / Fold change vs veh, KIAA1704 /// LOC100996395 / RFU, ING1 / Fold change vs veh, ING1 / RFU, TRMT61B / Fold change vs veh, TRMT61B / RFU, FUBP3 / Fold change vs veh, FUBP3 / RFU, TP53 / Fold change vs veh, TP53 / RFU, TNKS2 / Fold change vs veh, TNKS2 / RFU, ZFP14 / Fold change vs veh, ZFP14 / RFU, ACTR2 / Fold change vs veh, ACTR2 / RFU, PPP3R1 / Fold change vs veh, PPP3R1 / RFU, PIK3R1 / Fold change vs veh, PIK3R1 / RFU, HNRNPA1 / Fold change vs veh, HNRNPA1 / RFU, RNF170 / Fold change vs veh, RNF170 / RFU, ZNF28 / Fold change vs veh, ZNF28 / RFU, RNGTT / Fold change vs veh, RNGTT / RFU, OGT / Fold change vs veh, OGT / RFU, BRD1 / Fold change vs veh, BRD1 / RFU, MARS / Fold change vs veh, MARS / RFU, ZNF655 / Fold change vs veh, ZNF655 / RFU, FAHD1 / Fold change vs veh, FAHD1 / RFU, BDP1 / Fold change vs veh, BDP1 / RFU, LRRCC1 / Fold change vs veh, LRRCC1 / RFU, ARID1A / Fold change vs veh, ARID1A / RFU, ZNF146 / Fold change vs veh, ZNF146 / RFU, ZNF330 / Fold change vs veh, ZNF330 / RFU, GPN3 / Fold change vs veh, GPN3 / RFU, C9orf123 / Fold change vs veh, C9orf123 / RFU, N4BP2L2 / Fold change vs veh, N4BP2L2 / RFU, ARFIP1 / Fold change vs veh, ARFIP1 / RFU, FAM179B / Fold change vs veh, FAM179B / RFU, BCL10 / Fold change vs veh, BCL10 / RFU, UHRF1BP1L / Fold change vs veh, UHRF1BP1L / RFU, BET1 / Fold change vs veh, BET1 / RFU, CNOT2 / Fold change vs veh, CNOT2 / RFU, ZNF268 / Fold change vs veh, ZNF268 / Fold change vs veh, ZNF507 / RFU, DGCR2 / Fold change vs veh, DGCR2 / RFU, WDSUB1 / Fold change vs veh, WDSUB1 / Fold change vs veh, HSP90B1 /// MIR3652 / RFU, ADSS / Fold change vs veh, ADSS / RFU, GK / Fold change vs veh, GK / RFU, ZNF148 / Fold change vs veh, ZNF148 / RFU, TAF9 / Fold change vs veh, TAF9 / RFU, SLC1A5 / Fold change vs veh, SLC1A5 / RFU, SLMO2 / Fold change vs veh, SLMO2 / RFU, ABCC4 / Fold change vs veh, ABCC4 / RFU, LOC101060439 /// RAP1B / Fold change vs veh, LOC101060439 /// RAP1B / RFU, RFX7 / Fold change vs veh, RFX7 / RFU, GTPBP10 / Fold change vs veh, GTPBP10 / RFU, CNEP1R1 / Fold change vs veh, CNEP1R1 / RFU, BIVM-ERCC5 /// ERCC5 / Fold change vs veh, BIVM-ERCC5 /// ERCC5 / RFU, ILF3 / Fold change vs veh, ILF3 / RFU 11762660_at / Fold change /veh 11762660_at / RFU VCAN (11757783_s_at) / Fold change /veh VCAN (11757783_s_at) / RFU DDX43 (11728927_at) / Fold change /veh DDX43 (11728927_at) / RFU KRT8 (11758188_x_at) / Fold change /veh KRT8 (11758188_x_at) / RFU NKD1 (11759106_at) / Fold change /veh NKD1 (11759106_at) / RFU SRD5A1 (11742802_a_at) / Fold change /veh SRD5A1 (11742802_a_at) / RFU TPSAB1 /// TPSB2 (11721975_s_at) / Fold change /veh TPSAB1 /// TPSB2 (11721975_s_at) / RFU GSTM3 (11746129_a_at) / Fold change /veh GSTM3 (11746129_a_at) / RFU IL23R (11737362_x_at) / Fold change /veh IL23R (11737362_x_at) / RFU TMEM51 (11727254_a_at) / Fold change /veh TMEM51 (11727254_a_at) / RFU PIWIL2 (11732686_x_at) / Fold change /veh PIWIL2 (11732686_x_at) / RFU ORM1 (11744905_x_at) / Fold change /veh ORM1 (11744905_x_at) / RFU CCDC152 (11743942_at) / Fold change /veh CCDC152 (11743942_at) / RFU ECM1 (11717891_a_at) / Fold change /veh ECM1 (11717891_a_at) / RFU IL23R (11748794_a_at) / Fold change /veh IL23R (11748794_a_at) / RFU TNFAIP8L3 (11732012_x_at) / Fold change /veh TNFAIP8L3 (11732012_x_at) / RFU MBOAT4 (11741988_at) / Fold change /veh MBOAT4 (11741988_at) / RFU 11764193_at / Fold change /veh 11764193_at / RFU TMEM53 (11763286_at) / Fold change /veh TMEM53 (11763286_at) / RFU MAGEB2 (11727129_at) / Fold change /veh MAGEB2 (11727129_at) / RFU TMEM200A (11744735_a_at) / Fold change /veh TMEM200A (11744735_a_at) / RFU CCDC152 (11751479_a_at) / Fold change /veh CCDC152 (11751479_a_at) / RFU FAM211A (11726209_a_at) / Fold change /veh FAM211A (11726209_a_at) / RFU RGS16 (11746705_a_at) / Fold change /veh RGS16 (11746705_a_at) / RFU VCAN (11755009_s_at) / Fold change /veh VCAN (11755009_s_at) / RFU RHOB (11743442_s_at) / Fold change /veh RHOB (11743442_s_at) / RFU RGS16 (11720943_a_at) / Fold change /veh RGS16 (11720943_a_at) / RFU RGS16 (11720944_at) / Fold change /veh RGS16 (11720944_at) / RFU, VPS4B / Fold change vs veh, VPS4B / RFU, CREB1 / Fold change vs veh, CREB1 / RFU, DNAJC13 / Fold change vs veh, DNAJC13 / RFU, GNAQ / Fold change vs veh, GNAQ / RFU, CDK5R1 / Fold change vs veh, CDK5R1 / RFU, ZRANB3 / Fold change vs veh, ZRANB3 / RFU, CUL4A / Fold change vs veh, CUL4A / RFU, CCNY / Fold change vs veh, CCNY / RFU, UFL1 / Fold change vs veh, UFL1 / RFU, COG3 / Fold change vs veh, COG3 / RFU, DIAPH2 / Fold change vs veh, DIAPH2 / RFU, SKA2 / Fold change vs veh, SKA2 / RFU, AFF3 / Fold change vs veh, AFF3 / RFU, LMF1 / Fold change vs veh, LMF1 / RFU, IPO11 / Fold change vs veh, IPO11 / RFU, DFFB / Fold change vs veh, DFFB / RFU, FOXP1 / Fold change vs veh, FOXP1 / RFU, CARD8 / Fold change vs veh, CARD8 / RFU, STRN3 / Fold change vs veh, STRN3 / RFU, ADK / Fold change vs veh, ADK / RFU, RASSF2 / Fold change vs veh, RASSF2 / RFU, WIPF1 / Fold change vs veh, WIPF1 / RFU, LARP1B / Fold change vs veh, LARP1B / RFU, RASA1 / Fold change vs veh, RASA1 / RFU, RB1 / Fold change vs veh, RB1 / RFU, PPFIA1 / Fold change vs veh, PPFIA1 / RFU, MAT2A / Fold change vs veh, MAT2A / RFU, CCT5 / Fold change vs veh, CCT5 / RFU, WDR92 / Fold change vs veh, WDR92 / RFU, CUX1 / Fold change vs veh, CUX1 / RFU, TTC7A / Fold change vs veh, TTC7A / RFU, TMEM135 / Fold change vs veh, TMEM135 / RFU, DEPTOR / Fold change vs veh, DEPTOR / RFU, CPM / Fold change vs veh, CPM / RFU, DNAJB6 / Fold change vs veh, DNAJB6 / RFU, CACNA2D3 / Fold change vs veh, CACNA2D3 / RFU, DTX4 / Fold change vs veh, DTX4 / RFU, TFCP2 / Fold change vs veh, TFCP2 / RFU, GMCL1 /// GMCL1P1 / Fold change vs veh, GMCL1 /// GMCL1P1 / RFU, AEBP2 / Fold change vs veh, AEBP2 / RFU, SNHG1 /// SNORD22 /// SNORD25 /// SNORD26 /// SNORD27 /// SNORD28 /// SNORD29 /// SNORD31 / Fold change vs veh, SNHG1 /// SNORD22 /// SNORD25 /// SNORD26 /// SNORD27 /// SNORD28 /// SNORD29 /// SNORD31 / Fold change (Aza/veh), C12orf56 (ProbeSet 11735607_a_at) / Fold change (ACY-1035/veh), C12orf56 (ProbeSet 11735607_a_at) / Fold change (Aza/veh), FGFR1OP (ProbeSet 11751329_s_at) / Fold change (ACY-1035/veh), FGFR1OP (ProbeSet 11751329_s_at) / Fold change (Aza/veh), VPS36 (ProbeSet 11739960_a_at) / Fold change (ACY-1035/veh), VPS36 (ProbeSet 11739960_a_at) / RFU SYPL1 (11715823_x_at) / Fold change /veh SYPL1 (11715823_x_at) / RFU IGFBP7 (11715501_s_at) / Fold change /veh IGFBP7 (11715501_s_at) / RFU REEP3 (11722064_at) / Fold change /veh REEP3 (11722064_at) / RFU IGLL1 (11728026_x_at) / Fold change /veh IGLL1 (11728026_x_at): dose or concentration left out as unconfirmed. In kind it is cell-based, human. The note with it: ProbeSet 11719493_s_at; LIST B.

SMILES strings stand for the structures.

On to `Nc1ncn([C@@H]2O[C@H](CO)[C@@H](O)[C@H]2O)c(=O)n1` [azacitidine], for which the “RFU, TAF9” value amounted to 607.12 RFU.
